A value given as a limit tells only on which side of the number the result lay.

Among the data in ChEMBL document CHEMBL5465560, “Selectivity Literature for EUbOPEN Chemogenomic Library” (2024) are % of control and dTM values, retold here.

For assay [1], the target named is Cyclin-dependent kinase 2 (Homo sapiens, UniProt P24941). In words: Selectivity interaction (KinomeScan (DiscoverX)) EUB0001619a CDK2. The conditions noted are these: at 1 µM.
Assay [2] concerns Tyrosine-protein kinase ABL1 (Homo sapiens), P00519 [H396P]. Nature of the assay: Selectivity interaction (KinomeScan (DiscoverX)) EUB0000666a ABL1. The conditions noted are these: at 10 µM.
The target in assay [3] is Dual specificity protein kinase CLK3 (Homo sapiens, UniProt P49761). In words: Selectivity interaction (KinomeScan (DiscoverX)) EUB0000666a CLK3. The conditions noted are these: at 10 µM.
Chain of Dual specificity protein kinase CLK3 (P49761 whole entry, looked up): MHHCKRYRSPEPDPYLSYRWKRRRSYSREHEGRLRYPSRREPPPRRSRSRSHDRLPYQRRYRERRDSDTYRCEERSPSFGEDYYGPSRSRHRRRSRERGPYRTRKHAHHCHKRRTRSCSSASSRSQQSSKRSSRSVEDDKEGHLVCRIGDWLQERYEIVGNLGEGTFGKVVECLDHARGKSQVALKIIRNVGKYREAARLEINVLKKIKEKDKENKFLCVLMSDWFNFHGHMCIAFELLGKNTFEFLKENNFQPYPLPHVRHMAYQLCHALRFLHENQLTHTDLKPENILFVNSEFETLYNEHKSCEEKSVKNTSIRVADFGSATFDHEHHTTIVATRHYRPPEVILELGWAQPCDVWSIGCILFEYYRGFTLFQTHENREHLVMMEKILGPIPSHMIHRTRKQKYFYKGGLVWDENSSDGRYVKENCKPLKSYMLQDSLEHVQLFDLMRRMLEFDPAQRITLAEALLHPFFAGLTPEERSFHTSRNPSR
The target of assay [4] is T1, Serine/threonine-protein kinase DCLK1 (Homo sapiens) (UniProt O15075).
T1 sequence (whole entry): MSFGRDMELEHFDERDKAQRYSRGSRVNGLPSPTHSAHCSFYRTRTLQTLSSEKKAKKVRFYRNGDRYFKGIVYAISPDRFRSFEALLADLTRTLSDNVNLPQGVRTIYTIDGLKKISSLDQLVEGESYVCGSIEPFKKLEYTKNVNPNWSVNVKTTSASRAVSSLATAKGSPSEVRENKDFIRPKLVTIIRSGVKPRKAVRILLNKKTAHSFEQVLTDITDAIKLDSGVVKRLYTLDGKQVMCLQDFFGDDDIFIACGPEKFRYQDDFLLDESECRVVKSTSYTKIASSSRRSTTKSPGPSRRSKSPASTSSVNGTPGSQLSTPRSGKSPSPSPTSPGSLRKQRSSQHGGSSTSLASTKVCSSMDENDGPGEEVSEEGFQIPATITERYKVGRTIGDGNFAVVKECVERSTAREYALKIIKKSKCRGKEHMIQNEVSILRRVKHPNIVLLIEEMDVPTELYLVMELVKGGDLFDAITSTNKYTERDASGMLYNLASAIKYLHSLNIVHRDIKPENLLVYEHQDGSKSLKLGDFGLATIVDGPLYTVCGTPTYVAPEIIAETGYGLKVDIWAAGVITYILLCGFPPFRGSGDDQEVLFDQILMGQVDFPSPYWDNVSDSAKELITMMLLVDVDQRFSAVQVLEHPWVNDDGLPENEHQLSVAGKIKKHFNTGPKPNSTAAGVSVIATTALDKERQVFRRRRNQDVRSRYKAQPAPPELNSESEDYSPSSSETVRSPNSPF
In words: Selectivity interaction (KinomeScan (DiscoverX)) EUB0000045b DCLK1.

Assay [5] has as its target Platelet-derived growth factor receptor beta (Homo sapiens, UniProt P09619). Nature of the assay: Selectivity interaction (KinomeScan (DiscoverX)) EUB0000045b PDGFRB.
The target of assay [6] is Death-associated protein kinase 1 (Homo sapiens, UniProt P53355). Nature of the assay: Selectivity interaction (Ambit KINOMEscan and KiNATiv profiling in Jurkat cells) EUB0000090b DAPK1. The conditions noted are these: at 1 µM. It is filed as cell-based.
Chain of Death-associated protein kinase 1 (P53355 whole entry, looked up): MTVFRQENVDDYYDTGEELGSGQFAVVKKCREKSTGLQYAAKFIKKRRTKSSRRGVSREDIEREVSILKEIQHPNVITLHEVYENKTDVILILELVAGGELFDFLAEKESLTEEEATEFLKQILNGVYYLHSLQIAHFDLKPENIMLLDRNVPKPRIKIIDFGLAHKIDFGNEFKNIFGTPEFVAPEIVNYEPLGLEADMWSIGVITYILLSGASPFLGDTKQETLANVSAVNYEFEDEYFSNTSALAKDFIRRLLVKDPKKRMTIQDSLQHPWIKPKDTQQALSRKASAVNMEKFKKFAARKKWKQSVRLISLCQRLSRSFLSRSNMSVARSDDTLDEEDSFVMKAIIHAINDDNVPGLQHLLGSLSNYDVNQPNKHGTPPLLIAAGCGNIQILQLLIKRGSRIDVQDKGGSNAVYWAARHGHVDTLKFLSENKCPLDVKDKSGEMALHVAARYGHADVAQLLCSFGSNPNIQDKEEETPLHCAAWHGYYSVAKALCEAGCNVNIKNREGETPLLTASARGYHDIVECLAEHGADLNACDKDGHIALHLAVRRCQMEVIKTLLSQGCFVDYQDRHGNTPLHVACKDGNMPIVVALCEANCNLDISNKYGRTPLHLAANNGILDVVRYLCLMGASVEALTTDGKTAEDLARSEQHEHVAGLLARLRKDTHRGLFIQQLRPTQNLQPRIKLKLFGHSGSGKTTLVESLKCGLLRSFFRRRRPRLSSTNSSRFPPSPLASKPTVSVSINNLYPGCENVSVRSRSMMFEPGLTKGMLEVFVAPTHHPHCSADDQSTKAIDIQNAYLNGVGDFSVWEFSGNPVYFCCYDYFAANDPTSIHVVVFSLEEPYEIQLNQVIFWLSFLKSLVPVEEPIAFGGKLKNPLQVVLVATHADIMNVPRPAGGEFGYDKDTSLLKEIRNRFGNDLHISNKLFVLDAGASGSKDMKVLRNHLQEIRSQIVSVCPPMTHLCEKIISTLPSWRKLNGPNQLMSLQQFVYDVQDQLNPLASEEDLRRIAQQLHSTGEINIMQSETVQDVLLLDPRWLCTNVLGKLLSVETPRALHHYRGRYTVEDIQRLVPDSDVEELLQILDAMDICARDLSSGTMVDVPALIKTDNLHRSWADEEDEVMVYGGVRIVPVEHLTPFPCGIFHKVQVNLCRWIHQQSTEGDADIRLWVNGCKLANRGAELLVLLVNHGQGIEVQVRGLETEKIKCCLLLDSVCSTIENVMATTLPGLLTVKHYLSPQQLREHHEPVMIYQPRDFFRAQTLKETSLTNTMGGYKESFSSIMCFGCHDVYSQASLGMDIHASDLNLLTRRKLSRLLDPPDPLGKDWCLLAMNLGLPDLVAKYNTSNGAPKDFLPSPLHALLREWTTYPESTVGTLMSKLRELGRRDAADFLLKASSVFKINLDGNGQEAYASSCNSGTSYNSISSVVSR
The next assay deals with T2, Peregrin (Homo sapiens) (UniProt P55201).
T2 sequence (whole entry): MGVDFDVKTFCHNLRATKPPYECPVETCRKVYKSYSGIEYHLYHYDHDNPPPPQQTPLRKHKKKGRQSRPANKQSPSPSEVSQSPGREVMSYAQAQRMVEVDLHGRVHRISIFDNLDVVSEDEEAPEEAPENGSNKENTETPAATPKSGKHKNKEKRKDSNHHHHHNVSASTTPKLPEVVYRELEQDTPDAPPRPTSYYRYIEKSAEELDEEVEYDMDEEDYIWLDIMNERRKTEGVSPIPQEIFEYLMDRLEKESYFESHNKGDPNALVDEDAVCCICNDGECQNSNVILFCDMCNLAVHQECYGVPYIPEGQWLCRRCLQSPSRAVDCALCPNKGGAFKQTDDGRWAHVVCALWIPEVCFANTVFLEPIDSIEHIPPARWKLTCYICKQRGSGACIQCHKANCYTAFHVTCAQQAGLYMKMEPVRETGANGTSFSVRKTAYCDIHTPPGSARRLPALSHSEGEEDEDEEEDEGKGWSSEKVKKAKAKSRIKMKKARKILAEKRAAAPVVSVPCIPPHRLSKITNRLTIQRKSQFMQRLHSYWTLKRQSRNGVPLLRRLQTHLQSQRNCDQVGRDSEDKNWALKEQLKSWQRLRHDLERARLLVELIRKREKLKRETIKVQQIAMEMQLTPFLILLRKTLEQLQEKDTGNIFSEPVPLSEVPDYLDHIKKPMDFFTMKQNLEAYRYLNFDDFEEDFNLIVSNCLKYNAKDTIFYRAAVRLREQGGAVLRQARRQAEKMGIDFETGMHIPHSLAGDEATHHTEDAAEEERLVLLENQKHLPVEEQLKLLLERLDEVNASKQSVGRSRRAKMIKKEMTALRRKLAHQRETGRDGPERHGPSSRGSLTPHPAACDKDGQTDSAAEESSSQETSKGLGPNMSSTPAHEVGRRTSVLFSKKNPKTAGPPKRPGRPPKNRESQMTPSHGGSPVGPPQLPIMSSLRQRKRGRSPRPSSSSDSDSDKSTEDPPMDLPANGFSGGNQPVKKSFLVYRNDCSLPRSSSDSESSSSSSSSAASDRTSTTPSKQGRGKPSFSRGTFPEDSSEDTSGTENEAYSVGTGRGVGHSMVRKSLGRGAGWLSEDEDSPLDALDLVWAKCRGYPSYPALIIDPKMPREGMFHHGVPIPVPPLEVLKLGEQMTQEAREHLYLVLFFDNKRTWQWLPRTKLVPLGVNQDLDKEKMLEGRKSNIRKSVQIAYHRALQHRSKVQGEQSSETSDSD
Nature of the assay: Selectivity interaction (Human bromodomain panel (DSF assay)) EUB0000233b BRPF1.

Chain of Platelet-derived growth factor receptor beta (P09619 whole entry): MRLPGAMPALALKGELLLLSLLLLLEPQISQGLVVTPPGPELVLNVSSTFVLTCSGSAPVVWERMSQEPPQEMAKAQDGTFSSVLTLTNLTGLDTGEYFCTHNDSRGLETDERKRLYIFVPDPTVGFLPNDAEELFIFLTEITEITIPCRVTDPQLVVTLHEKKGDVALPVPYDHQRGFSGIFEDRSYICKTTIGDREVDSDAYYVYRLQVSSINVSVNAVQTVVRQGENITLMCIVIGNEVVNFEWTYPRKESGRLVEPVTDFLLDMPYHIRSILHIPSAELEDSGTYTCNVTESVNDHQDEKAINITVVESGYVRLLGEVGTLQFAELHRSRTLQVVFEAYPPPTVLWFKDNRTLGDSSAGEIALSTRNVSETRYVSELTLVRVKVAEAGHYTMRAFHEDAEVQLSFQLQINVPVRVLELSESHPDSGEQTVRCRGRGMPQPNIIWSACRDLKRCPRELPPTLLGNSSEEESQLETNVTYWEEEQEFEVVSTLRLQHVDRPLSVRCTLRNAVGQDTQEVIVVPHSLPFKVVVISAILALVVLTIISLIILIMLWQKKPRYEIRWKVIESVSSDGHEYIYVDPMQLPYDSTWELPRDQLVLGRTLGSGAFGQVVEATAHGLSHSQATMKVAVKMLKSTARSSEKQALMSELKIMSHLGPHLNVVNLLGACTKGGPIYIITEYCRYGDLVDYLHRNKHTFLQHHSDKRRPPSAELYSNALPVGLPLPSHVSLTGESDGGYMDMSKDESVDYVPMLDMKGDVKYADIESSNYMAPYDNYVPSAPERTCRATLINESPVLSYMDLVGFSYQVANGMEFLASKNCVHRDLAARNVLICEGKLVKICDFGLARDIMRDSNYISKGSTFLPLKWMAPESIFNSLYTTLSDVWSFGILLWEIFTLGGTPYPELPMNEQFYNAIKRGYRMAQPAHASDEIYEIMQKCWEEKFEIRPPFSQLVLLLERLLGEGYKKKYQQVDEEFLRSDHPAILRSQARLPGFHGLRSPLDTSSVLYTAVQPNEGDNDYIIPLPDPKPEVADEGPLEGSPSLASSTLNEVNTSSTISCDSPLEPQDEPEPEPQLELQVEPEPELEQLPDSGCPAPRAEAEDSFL

`N#Cc1cccc(-c2c[nH]c3ncnc(N4CCOCC4)c23)c1` came in with a % of control in assay [1] of 89%. For `O=C(NOC[C@H](O)CO)c1ccc(F)c(F)c1Nc1ccc(I)cc1F`, the % of control in assay [2] and in assay [3] was 100% throughout. On to `C=CC(=O)Nc1cc(-n2c(=O)ccc3cnc4ccc(-c5ccc(NS(C)(=O)=O)cc5)cc4c32)ccc1C`, for which the % of control was determined as 100% in assay [4] (at 1 µM), 84% in assay [4] (at 10 µM), 76% in assay [5] (at 1 µM) and 63% in assay [5] (at 10 µM).

In the case of `CN(C)C/C=C/C(=O)Nc1ccc(C(=O)N2CCCC(Nc3ncc(Cl)c(-c4c[nH]c5ccccc45)n3)C2)cc1` (centres undefined), the % of control in assay [6] was 80%.

Consider `CN(C)CCCOc1ccc(-c2cc(NCCCn3cccn3)nc(S(C)(=O)=O)n2)cc1`, for which, at Peregrin (Homo sapiens), the dTM was < 2 K.
